Reference: patent US4940702A, “Cephem compounds” (Beecham Group p.l.c., priority 1985, dated 1990)
≈ marks a conversion by molar mass, not a printed value.

Columns and labels:
Test in all cases: Minimum Inhibitory Concentration (MIC) by serial dilution in nutrient agar
Type in all cases: cell-based
E. coli DC 0 = conditions: Escherichia coli, DC0, 10^4 colony forming units, overnight at 37° C.
Description: (§1) Minimum Inhibitory Concentration (MIC) values of compounds of the invention against E coli DC 0, K pneumoniae T767, and P aeruginosa NCTC 10662 were determined by serial dilution in a nutrient agar (from Oxoid Ltd., Basingstoke, England). The plates were inoculated with 10^4 colony forming units and incubated overnight at 37° C. The MIC values recorded in Table 1 were the lowest concentration of antibiotic to inhibit growth. Comparative data for 7α-formamido-3-(pyridiniummethyl)-7β-(thien-2-yl-acetamido)-ceph-3-em-4-carboxylate (Compound A), disclosed in European Patent Application No. 82303821.1 (Publication Number 0 071 395), are also given.

K. pneumoniae T767 = conditions: Klebsiella pneumoniae, 10^4 colony forming units, overnight at 37° C.
Description: as §1

P. aeruginosa NCTC 10662 = conditions: Pseudomonas aeruginosa, NCTC10662, 10^4 colony forming units, overnight at 37° C.
Description: as §1

| Structure (SMILES) | MIC (E. coli DC 0) [µg/mL] | MIC (K. pneumoniae T767) [µg/mL] | MIC (P. aeruginosa NCTC 10662) [µg/mL] |
| --- | --- | --- | --- |
| O=CN[C@@]1(NC(=O)Cc2cccs2)C(=O)N2C(C(=O)[O-])=C(C[n+]3ccccc3)CS[C@@H]21 [Compound A, 7α-formamido-3-(pyridiniummethyl)-7β-(thien-2-yl-acetamido)-ceph-3-em-4-carboxylate, reference compound] | 25 (≈ 54.5 µM) | 25 (≈ 54.5 µM) | 50 (≈ 109 µM) |
| CCN1CCN(C(=O)NC(C(=O)NC2(NC=O)C(=O)N3C(C(=O)[O-])=C(C[n+]4cccc5c4CCC5)CSC32)c2ccc(O)c(O)c2)C(=O)C1=O [Example 3, 3-(2,3-Cyclopentenopyridinium)methyl-7β-[D-2-(3,4-dihydroxyphenyl)-2-[(4-ethyl-2,3-dioxopiperazin-1-yl)carbonylamino]acetamido]-7α-formamido-ceph-3-em-4-carboxylate] | 0.12 (≈ 0.17 µM) | 0.12 (≈ 0.17 µM) | 1 (≈ 1.41 µM) |
| CCN1CCN(C(=O)N[C@@H](C(=O)N[C@]2(NC=O)C(=O)N3C(C(=O)[O-])=C(C[n+]4ccc(C5CC5)cc4)CS[C@@H]32)c2ccccc2)C(=O)C1=O [Example 29, 3-(4-Cyclopropylpyridinium)methyl-7β-[D-2-[(4-ethyl-2,3-dioxopiperazin-1-yl)carbonylamino]-2-phenylacetamido]-7α-formamido-ceph-3-em-4-carboxylate] | 0.5 (≈ 0.74 µM) | 1 (≈ 1.48 µM) | 8 (≈ 11.8 µM) |
